Legend:
KCC2 mRNA = KCC2 mRNA RT-qPCR in primary human cortical neurons; assay type: cell-based; settings: KP 50, 100, 400 nM, 48 h
Experimental: The neuron-enriched cultures were established from fetal cortical specimens at 15-20 weeks of gestation. The protocols for tissue processing complied with all federal and institutional guidelines. The cultures were plated on PEI (polyethyleneimine solution) substrate and maintained in Neurobasal media supplemented with B27 as previously described (Pelsman et al., 2003, International journal of developmental neuroscience 21:117-124; Yeo et al., 2013, Proc Natl Acad Sci USA 110:4315-4320).
For RT-qPCR, the cell pellets were collected after treatments with vehicle (0.1% DMSO) or KP (50, 100, and 400 nM) for 48 h starting at day 6 in vitro.
Total RNA was isolated from cultured cell samples using Directzol RNA miniprep kit (ZymoResearch). The protocol includes DNAse digestion to exclude genomic DNA from preparations. Total RNA (1 μg) was reverse transcribed using oligo primers (dT) and SuperScriptIII first-strand synthesis kit (Invitrogen). Gene expression was assessed by quantitative real-time PCR using 2×SYBR Green Master Mix (Qiagen) and a three-step cycling protocol (anneal at 60° C./elongate at 72° C., denature at 95° C.). […] The amount of target messenger RNA (mRNA) in the experimental group relative to that in the control was determined from the resulting fluorescence and threshold values (Ct) using the ΔΔCt method. βIII-tubulin was used as housekeeping gene. […]

nerve injury pain = assay: Nerve constriction injury (PSNL) pain model, mechanical withdrawal; assay type: in vivo, mouse
Experimental: For pain-related behavior, mechanical allodynia was assessed with von Frey filaments (Ugo Basile, Italy). The mice were placed on a 5×5-mm wire-mesh grid floor in individual compartments to avoid visual stimulation and allowed to adapt for 0.5 h prior to the von Frey test. The von Frey filament was then applied to the middle of the plantar surface of the hind paw with 5 g force. The withdrawal responses following the hind paw stimulation were measured at least three times, and the mechanical allodynia, which was defined as an increase in the number of withdrawal responses to the stimulation, was compared.
Thus, in vivo, KP functions as an analgesic when administered systemically in injury-related pain models.
Next, whether the analgesic effects of KP were mediated centrally at the spinal cord level was assessed.
Mechanical withdrawal was measured thresholds after nerve constriction injury (PSNL) (FIG. 12B and FIG. 12C). […] Thus, δ-cat(S276A) spinal transgenesis via AAV9 is sufficient to evoke analgesia after nerve constriction injury, to lesser degree also with δ-cat(WT). Importantly, δ-cat(S276A) spinal transgenesis was accompanied by increased expression of KCC2 in the SCDH. […] Moreover, our discovery points toward a genetically-encoded approach that can be developed for translation into clinical use as an alternative or complement to KP-related small molecules.

[1] = tested on: motor function and coordination of mice; assay: Rotarod assay; assay type: in vivo, mouse; settings: 10, 30 mg/kg i.p.; one-time exception high-dose day 7
Experimental: For assessment in rotarod (RR), all animals received training prior to experiments; mice were placed on the RR apparatus set in an accelerating rotational speed mode (3-30 rpm, 300 s max) per trial. Following training, the average time to fall from the rotating cylinder over three trials was recorded as baseline latency (4-40 rpm, 300 s max/trial). Mice were injected daily with either vehicle or drug compounds before RR tests. Latency to fall was measured (4-40 rpm, 300 s max/trial (inter-trial interval is at least 15 min). The average latency to fall from the rod was recorded for each animal.
With these beneficial effects of KP on pathologic pain and itch, whether KP had undesirable effects on the CNS in terms of sedation, impairment of motor stamina, balance and coordination was assessed. […] Conditioned place preference was used to test whether KP (30 mg/kg; i.p.) can trigger brain reward mechanisms (Jackson et al., 2019, Psychopharmacology, 236(12):3593-3599; Sora et al., 1998, Proc Natl Acad Sci USA 95:7699-7704), and there were no such effects (FIG. 4F). […] In pathologic pain models, KP acts centrally to mediate analgesic effects, and thus relies on KCC2 chloride extrusion.

[2] = tested on: beta-cat binding to KCC2 promoter; assay: ChIP with anti-beta-cat antibody at KCC2 promoter; assay type: cell-based, rat; settings: KP-treated vs vehicle
Experimental: ChIP assay was carried out as described previously (Yeo et al., 2009, J Neurosci 29:14652-14662; Yeo et al., 2013, Proc Natl Acad Sci USA 110:4315-4320). Primary cortical neurons (0.7×10^6) were used for each ChIP experiment. Cells were crosslinked with 1% formaldehyde for 30 min, washed twice with cold PBS, resuspended in lysis buffer [1% SDS, 10 mm EDTA, and 50 mm Tris-HCl, pH 8.0, with protease inhibitor cocktail (Roche)], and sonicated for 15 s pulses. The lysates were clarified by centrifugation at 10,000 rpm for 10 min at 4° C. in a microcentrifuge. One-tenth of the total lysate was used as input control of genomic DNA. Supernatants were collected and diluted in buffer (1% Triton X-100, 2 mm EDTA, 150 mm NaCl, 20 mm Tris-HCl, pH 8.0, and protease inhibitor cocktail) followed by immunoclearing with 1 mg of salmon sperm DNA, 10 ml of rabbit IgG, and 20 ml of protein A/G-Sepharose (Santa Cruz Biotechnology) for 1 h at 4° C. Immunoprecipitation was performed overnight at 4° C. with 2 mg of each specific antibody. Precipitates were washed sequentially for 10 min each in TSE1 buffer (0.1% SDS, 1% Triton X-100, 2 mm EDTA, 150 mm NaCl, and 20 mm Tris-HCl, pH 8.0), TSE2 (TSE1 with 500 mm NaCl), and TSE3 (0.25 m LiCl, 1% NP-40, 1% deoxycholate, 1 mm EDTA, and 10 mm Tris-HCl, pH 8.0). […]

Question: For `O=C1Cc2c([nH]c3ccc(Br)cc23)-c2ccccc2N1` [kenpaullone, 9-bromo-7,12-dihydro-indolo [3,2-d] [1]benzazepin-6(5H)-one], which “KCC2 mRNA” value (KCC2 mRNA) is on record?
Answer: The value was “increases in a dose-dependent manner”.

Question: What about the “analgesic effect on sensitized mechanical withdrawal” value (nerve injury pain; 10 mg/kg i.p. daily after nerve constriction injury) of the same compound?
Answer: The value was “less accentuated”.

Question: What about the “analgesic effect on sensitized mechanical withdrawal” value (nerve injury pain; 30 mg/kg i.p. daily after nerve constriction injury) of the same compound?
Answer: The value was “more pronounced”.

Question: And the “behavioral sensitization of juvenile mice” value (nerve injury pain; KP 30 mg/kg, PSNL, juvenile mice)?
Answer: The value was “almost complete behavioral recovery”.

Question: And the mechanical allodynia (nerve injury pain; intrathecal 30 μg, nerve constriction injury)?
Answer: The mechanical allodynia was “reduced mechanical allodynia”.

Question: What about the protracted analgesia (nerve injury pain; systemic KP, d7-14 after nerve constriction) of the same compound?
Answer: The protracted analgesia was “almost complete elimination of sensitization”.

Question: And the “elapsed time on the rotarod” value [1]?
Answer: The value was “does not affect motor stamina and coordination”.

Question: What about the “binding of beta-cat to TCF site” value [2] of the same compound?
Answer: Its value is “significantly increases binding”.

— patent publication US20220281930A1, “COMPOSITIONS AND METHODS FOR THE TREATMENT OF PATHOLOGICAL PAIN AND ITCH” (DUKE UNIVERSITY, priority 2019, published 2022)
